Results from patent publication US4730063A, “Alkali metal 2,5-dihydro-3-ethoxycarbonyl-2-[(substituted phenyl)amino]-4-furanyloxides” (Pennwalt Corportion, priority 1986, dated 1988).

System: carrageenan-induced rat paw edema
Assay: carrageenan-induced rat paw edema assay
Type: in vivo
Conditions: oral doses of 50 mg/kg

Structure (SMILES)	inhibition of edema
CCOC(=O)C1=C(O)COC1=Nc1ccccc1 [Example 1, potassium 2,5-dihydro-3-ethoxycarbonyl-2-(phenylimino)-4-furanyloxide]	31%
CCOC(=O)C1=C(O)COC1=Nc1cccc([N+](=O)[O-])c1 [Example 4, potassium 2,5-dihydro-3-ethoxycarbonyl-2-[(3-nitrophenyl)imino]-4-furanyloxide]	28.3%
